PubChem BioAssay (NCI)
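Exposure lasted 48 hours, with cells grown in 96-well plates and compounds tested at five concentrations. GI50 = concentration required for 50% inhibition of growth. The concentration for full growth arrest is given as TGI.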

Assays:
Experiment in all cases: NCI anticancer screen, dose series, 48 h
[1] = tested on: ACHN renal
[2] = tested on: CCRF-CEM leukemia
[3] = tested on: HL-60(TB) leukemia
[4] = tested on: HOP-92 NSCLC
[5] = tested on: IGROV1 ovarian
[6] = tested on: SR leukemia
[7] = tested on: U251 CNS
[8] = tested on: UACC-257 melanoma
[9] = tested on: MDA-N
[10] = tested on: DMS 114 small cell lung
[11] = tested on: HOP-18 NSCLC
[12] = tested on: LXFL 529 NSCLC

COc1ccc(-n2nc(C(=O)c3ccccc3)c3nn4c(=O)cc(-c5ccccc5)nc4nc32)cc1
GI50 [1]: 45.9 µM | TGI [1]: > 100 µM | GI50 [2]: 28.9 µM | TGI [2]: > 100 µM | GI50 [3]: 29.6 µM | TGI [3]: > 100 µM | GI50 [4]: 37.4 µM | TGI [4]: > 100 µM | GI50 [5]: 25.9 µM | TGI [5]: > 100 µM | GI50 [6]: 24.9 µM | TGI [6]: > 100 µM | GI50 [7]: 39.2 µM | TGI [7]: > 100 µM | GI50 [8]: 42.6 µM | TGI [8]: > 100 µM

C#C[C@]1(O)[C@@H](CO)O[C@@H](n2ccc(=O)[nH]c2=O)[C@@H]1O
TGI [1]: 0.602 µM | TGI [2]: > 100 µM | TGI [3]: > 100 µM | TGI [5]: 2.59 µM | TGI [9]: 1.71 µM | TGI [6]: > 100 µM | TGI [7]: > 100 µM | TGI [8]: > 84.5 µM

COc1ccc(-n2nnc3c(C#N)c(C)c(-c4ccccc4)n3c2=O)cc1
TGI [1]: > 100 µM | TGI [4]: > 100 µM | TGI [5]: > 100 µM | TGI [6]: > 100 µM | TGI [7]: > 41.5 µM | TGI [8]: > 100 µM

O=C1/C(=C/c2ccc([N+](=O)[O-])cc2)Sc2scc(-c3cccc([N+](=O)[O-])c3)[n+]21
TGI [1]: 14 µM | TGI [2]: 1.3 µM | TGI [3]: 1.07 µM | TGI [4]: 13.8 µM | TGI [5]: 10.7 µM | TGI [9]: 15.7 µM | TGI [7]: 25.6 µM | TGI [8]: 18.4 µM

Cc1ccc([N+](=O)[O-])cc1S(=O)(=O)Nc1ccc(C2=NN(C(=O)c3ccccc3)C(c3ccccc3O)C2)cc1 (configuration not stated)
TGI [1]: 47.8 µM | TGI [2]: > 100 µM | TGI [3]: 69.4 µM | TGI [4]: 26.4 µM | TGI [5]: 25.4 µM | TGI [9]: 88.1 µM | TGI [6]: > 100 µM | TGI [7]: 80.1 µM | TGI [8]: 51.8 µM

Oc1ccc(Cl)cc1C1=Nn2c(COc3ccc4c(c3)CCCC4)nnc2SC1
TGI [1]: 49.7 µM | TGI [2]: 46.3 µM | TGI [3]: 38.2 µM | TGI [4]: 18.1 µM | TGI [5]: 26.3 µM | TGI [9]: 30.2 µM | TGI [7]: 35.3 µM | TGI [8]: 35.6 µM

C=C(CN(C)C)C(=O)c1ccccc1Cl
TGI [1]: 32.5 µM | TGI [2]: 44.3 µM | TGI [10]: 29.4 µM | TGI [3]: 29.6 µM | TGI [11]: 33.7 µM | TGI [4]: 31.1 µM | TGI [5]: > 70.8 µM | TGI [12]: 26 µM | TGI [6]: > 81.7 µM | TGI [7]: 98.4 µM | TGI [8]: 37.5 µM

CC(C)(C)COS(=O)OCC(C)(C)C
TGI [1]: > 100 µM | TGI [2]: > 100 µM | TGI [3]: > 100 µM | TGI [4]: > 100 µM | TGI [5]: > 100 µM | TGI [9]: > 100 µM | TGI [6]: > 100 µM | TGI [7]: > 100 µM | TGI [8]: > 100 µM

CN(CCc1ccccn1)c1ccc2c(c1)Cc1ccccc1-2
TGI [1]: > 100 µM | TGI [2]: 68.8 µM | TGI [3]: 59.3 µM | TGI [4]: 31.9 µM | TGI [5]: 88.1 µM | TGI [7]: 22.6 µM | TGI [8]: 92.2 µM

OC1CCSc2ccccc21 (configuration not stated)
TGI [1]: > 100 µM | TGI [2]: > 100 µM | TGI [10]: > 100 µM | TGI [11]: > 100 µM | TGI [5]: > 100 µM | TGI [12]: > 100 µM | TGI [6]: > 100 µM | TGI [7]: > 100 µM

CCOC(=O)c1cccc(N=Nc2ncc(/C=C/C(=O)OC)[nH]2)c1
TGI [1]: 72 µM | TGI [2]: > 100 µM | TGI [3]: 30 µM | TGI [4]: > 100 µM | TGI [5]: 83.8 µM | TGI [9]: > 100 µM | TGI [6]: > 100 µM | TGI [7]: > 100 µM | TGI [8]: 46.4 µM

NC(N)=N/N=C/c1c(-c2cccs2)nc2n1CCS2
GI50 [1]: 20.8 µM | TGI [1]: 40.9 µM | GI50 [2]: 17.2 µM | TGI [2]: 34 µM | GI50 [5]: 34.9 µM | TGI [5]: > 100 µM | GI50 [6]: 17.6 µM | TGI [6]: 34 µM | GI50 [7]: 16.6 µM | TGI [7]: 30.1 µM | GI50 [8]: 22.3 µM | TGI [8]: 44.8 µM

CC(C)C(=O)CC(c1ccc(Br)cc1)N1N=C(C(C)C)CC1c1ccc(Br)cc1 (configuration not stated)
TGI [1]: > 100 µM | TGI [2]: > 100 µM | TGI [10]: > 100 µM | TGI [11]: > 100 µM | TGI [4]: > 100 µM | TGI [12]: > 100 µM | TGI [6]: > 100 µM | TGI [7]: > 100 µM

CS(=O)(=O)Nc1cccc(-c2ccc3ncnc(Nc4cncc(Cl)c4)c3c2)c1
GI50 [1]: 1.11 µM | TGI [1]: > 100 µM | GI50 [2]: 3.09 µM | TGI [2]: > 100 µM | GI50 [3]: 2.66 µM | TGI [3]: 9.2 µM | GI50 [4]: 1.83 µM | TGI [4]: 26.8 µM | GI50 [5]: 0.533 µM | TGI [5]: 4.06 µM | GI50 [6]: 1.67 µM | TGI [6]: 5.47 µM | GI50 [7]: 1.64 µM | TGI [7]: 4.18 µM | GI50 [8]: 2.08 µM | TGI [8]: 4.82 µM

O=S(C(c1ccccc1)=P(c1ccccc1)(c1ccccc1)c1ccccc1)c1ccc(Cl)cc1 (configuration not stated)
TGI [1]: 60 µM | TGI [2]: > 100 µM | TGI [3]: 45 µM | TGI [4]: 42.2 µM | TGI [5]: > 100 µM | TGI [9]: 78.6 µM | TGI [6]: > 100 µM | TGI [7]: > 100 µM | TGI [8]: > 100 µM

O=C1CNc2cc(N3CCCCC3)ccc2N1
TGI [1]: > 100 µM | TGI [2]: > 100 µM | TGI [3]: > 100 µM | TGI [4]: > 100 µM | TGI [5]: 29.7 µM | TGI [9]: > 100 µM | TGI [6]: > 100 µM | TGI [7]: > 100 µM | TGI [8]: > 100 µM

CCOC(=O)/C=C/C1=C(Br)[C@@]2(C)CC[C@@H]3c4ccc(O)cc4CC[C@H]3[C@@H]2C1
TGI [1]: 29.1 µM | TGI [2]: 32.3 µM | TGI [3]: 34 µM | TGI [4]: 23.8 µM | TGI [5]: 24.7 µM | TGI [9]: 26.7 µM | TGI [6]: 18.5 µM | TGI [7]: 30.3 µM | TGI [8]: 26.8 µM
